Reference: patent publication US9579314B2 (priority 2015, dated 2017)

Columns and labels:
Human β2 adrenoceptor = Human β2 adrenoceptor (Homo sapiens, UniProt P07550); conditions: read-out: B2 binding affinity
Human M3 receptor = Human M3 receptor (Homo sapiens, UniProt P20309); conditions: read-out: M3 binding affinity
Human M3 receptor, sequence (P20309 whole entry): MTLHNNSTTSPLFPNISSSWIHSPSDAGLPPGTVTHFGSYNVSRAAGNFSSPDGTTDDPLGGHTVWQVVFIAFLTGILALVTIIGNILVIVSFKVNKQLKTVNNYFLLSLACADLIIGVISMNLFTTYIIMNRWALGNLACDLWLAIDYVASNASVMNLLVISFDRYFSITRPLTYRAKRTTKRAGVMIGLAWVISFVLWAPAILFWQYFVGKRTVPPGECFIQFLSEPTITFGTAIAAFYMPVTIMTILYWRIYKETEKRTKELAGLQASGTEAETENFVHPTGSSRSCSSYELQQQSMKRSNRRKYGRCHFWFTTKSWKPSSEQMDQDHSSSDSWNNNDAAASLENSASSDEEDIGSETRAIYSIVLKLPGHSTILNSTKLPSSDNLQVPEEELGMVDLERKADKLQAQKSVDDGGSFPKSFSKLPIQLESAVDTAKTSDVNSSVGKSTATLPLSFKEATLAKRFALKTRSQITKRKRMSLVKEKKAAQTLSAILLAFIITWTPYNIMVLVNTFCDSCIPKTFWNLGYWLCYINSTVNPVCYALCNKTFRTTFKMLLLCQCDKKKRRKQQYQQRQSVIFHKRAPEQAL

Human β2 adrenoceptor, sequence (P07550 whole entry): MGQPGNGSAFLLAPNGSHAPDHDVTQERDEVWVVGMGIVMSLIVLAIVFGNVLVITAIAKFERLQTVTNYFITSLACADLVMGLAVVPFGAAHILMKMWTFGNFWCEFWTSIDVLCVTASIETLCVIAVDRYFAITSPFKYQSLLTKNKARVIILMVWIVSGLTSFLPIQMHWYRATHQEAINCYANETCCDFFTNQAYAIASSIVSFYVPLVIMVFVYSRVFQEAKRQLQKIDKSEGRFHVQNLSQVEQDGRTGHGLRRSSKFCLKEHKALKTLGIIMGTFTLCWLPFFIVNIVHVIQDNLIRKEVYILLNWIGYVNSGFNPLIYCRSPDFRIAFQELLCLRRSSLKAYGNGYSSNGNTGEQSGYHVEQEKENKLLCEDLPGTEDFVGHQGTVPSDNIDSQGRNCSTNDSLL

Structure (SMILES)	IC50 (Human β2 adrenoceptor)	IC50 (Human M3 receptor)
O=C(NCCNC(=O)c1ccc(COc2cccc([C@](O)(C(=O)OCC3CCN(Cc4ccccc4)CC3)c3ccccc3)c2)cc1)c1ccc(CNC[C@H](O)c2ccc(O)c3[nH]c(=O)ccc23)cc1 [Compound 125, (1-benzylpiperidin-4-yl)methyl (S)-2-hydroxy-2-(3-((4-((2-(4-((((R)-2-hydroxy-2-(8-hydroxy-2-oxo-1,2-dihydroquinolin-5-yl)ethyl)amino)methyl)benzamido)ethyl)carbamoyl)benzyl)oxy)phenyl)-2-phenylacetate]	0.3 to 3 nM	0.3 to 3 nM
COc1cc(C(=O)NCCNC(=O)c2ccc(COc3cccc([C@](O)(C(=O)OCC4CCN(Cc5ccccc5)CC4)c4ccccc4)c3)cc2)ccc1CNC[C@H](O)c1ccc(O)c2[nH]c(=O)ccc12 [Compound 126, (1-benzylpiperidin-4-yl)methyl (S)-2-hydroxy-2-(3-((4-((2-(4-((((R)-2-hydroxy-2-(8-hydroxy-2-oxo-1,2-dihydroquinolin-5-yl)ethyl)amino)methyl)-3-methoxybenzamido)ethyl)carbamoyl)benzyl)oxy)phenyl)-2-phenylacetate]	0.3 to 3 nM	0.3 to 3 nM
O=C(COc1cccc([C@](O)(C(=O)OCC2CCN(Cc3ccccc3)CC2)c2ccccc2)c1)N[C@H]1C[C@H](NC(=O)c2ccc(CNC[C@H](O)c3ccc(O)c4[nH]c(=O)ccc34)c(O)c2)C1 [Compound 127, (1-Benzylpiperidin-4-yl)methyl (S)-2-hydroxy-2-(3-(2-(((1R,3S)-3-(3-hydroxy-4-((((R)-2-hydroxy-2-(8-hydroxy-2-oxo-1,2-dihydroquinolin-5-yl)ethyl)amino)methyl)-benzamido)cyclobutyl)amino)-2-oxoethoxy)phenyl)-2-phenylacetate]	< 0.3 nM	< 0.3 nM
O=C(COc1cccc([C@](O)(C(=O)OCC2CCN(Cc3ccccc3)CC2)c2ccccc2)c1)N[C@H]1C[C@H](NC(=O)c2ccc(CNC[C@H](O)c3ccc(O)c4[nH]c(=O)ccc34)cc2F)C1 [Compound 128, (S)-(1-benzylpiperidin-4-yl)methyl 2-(3-(2-(((1R,3S)-3-(2-fluoro-4-((((R)-2-hydroxy-2-(8-hydroxy-2-oxo-1,2-dihydroquinolin-5-yl)ethyl)amino)methyl)benzamido)cyclobutyl)amino)-2-oxoethoxy)phenyl)-2-hydroxy-2-phenylacetate]	< 0.3 nM	0.3 to 3 nM
COc1cc(CNC[C@H](O)c2ccc(O)c3[nH]c(=O)ccc23)ccc1C(=O)N[C@H]1C[C@H](NC(=O)COc2cccc([C@](O)(C(=O)OCC3CCN(Cc4ccccc4)CC3)c3ccccc3)c2)C1 [Compound 130, (S)-(1-benzylpiperidin-4-yl)methyl 2-hydroxy-2-(3-(2-(((1R,3S)-3-(4-((((R)-2-hydroxy-2-(8-hydroxy-2-oxo-1,2-dihydroquinolin-5-yl)ethyl)amino)methyl)-2-methoxybenzamido)cyclobutyl)amino)-2-oxoethoxy)phenyl)-2-phenylacetate]	0.3 to 3 nM	0.3 to 3 nM
COc1cc(C(=O)N[C@H]2C[C@H](NC(=O)COc3cccc([C@](O)(C(=O)OCC4CCN(Cc5ccccc5)CC4)c4ccccc4)c3)C2)ccc1CNC[C@H](O)c1ccc(O)c2[nH]c(=O)ccc12 [Compound 131, (S)-(1-benzylpiperidin-4-yl)methyl 2-hydroxy-2-(3-(2-(((1R,3S)-3-(4-((((R)-2-hydroxy-2-(8-hydroxy-2-oxo-1,2-dihydroquinolin-5-yl)ethyl)amino)methyl)-3-methoxybenzamido)cyclobutyl)amino)-2-oxoethoxy)phenyl)-2-phenylacetate]	< 0.3 nM	0.3 to 3 nM
O=C(COc1cccc([C@](O)(C(=O)OCC2CCN(Cc3ccccc3)CC2)c2ccccc2)c1)N[C@H]1C[C@H](NC(=O)c2ccc(CNC[C@H](O)c3ccc(O)c4[nH]c(=O)ccc34)c(F)c2)C1 [Compound 132, (1-benzylpiperidin-4-yl)methyl (S)-2-(3-(2-(((1R,3S)-3-(3-fluoro-4-((((R)-2-hydroxy-2-(8-hydroxy-2-oxo-1,2-dihydroquinolin-5-yl)ethyl)amino)methyl)benzamido)cyclobutyl)amino)-2-oxoethoxy)phenyl)-2-hydroxy-2-phenylacetate]	< 0.3 nM	0.3 to 3 nM
O=C(COc1cccc([C@](O)(C(=O)OCC2CCN(Cc3ccccc3)CC2)c2ccccc2)c1)N[C@H]1C[C@H](NC(=O)c2ccc(CNC[C@H](O)c3ccc(O)c4[nH]c(=O)ccc34)cc2Cl)C1 [Compound 133, (1-benzylpiperidin-4-yl)methyl (S)-2-(3-(2-(((1R,3S)-3-(2-chloro-4-((((R)-2-hydroxy-2-(8-hydroxy-2-oxo-1,2-dihydroquinolin-5-yl)ethyl)amino)methyl)benzamido)cyclobutyl)amino)-2-oxoethoxy)phenyl)-2-hydroxy-2-phenylacetate]	< 0.3 nM	< 0.3 nM
O=C(COc1cccc([C@](O)(C(=O)OCC2CCN(Cc3ccccc3)CC2)c2ccccc2)c1)N[C@H]1C[C@H](NC(=O)c2ccc(CNC[C@H](O)c3ccc(O)c4[nH]c(=O)ccc34)c(F)c2F)C1 [Compound 134, (1-benzylpiperidin-4-yl)methyl (S)-2-(3-(2-(((1R,3S)-3-(2,3-difluoro-4-((((R)-2-hydroxy-2-(8-hydroxy-2-oxo-1,2-dihydroquinolin-5-yl)ethyl)amino)methyl)benzamido)cyclobutyl)amino)-2-oxoethoxy)phenyl)-2-hydroxy-2-phenylacetate]	< 0.3 nM	0.3 to 3 nM
O=C(COc1cccc([C@](O)(C(=O)OCC2CCN(Cc3ccccc3)CC2)c2ccccc2)c1)N[C@H]1C[C@H](NC(=O)c2ccc(CNC[C@H](O)c3ccc(O)c4[nH]c(=O)ccc34)c(Cl)c2)C1 [Compound 135, (1-benzylpiperidin-4-yl)methyl (S)-2-(3-(2-(((1R,3S)-3-(3-chloro-4-((((R)-2-hydroxy-2-(8-hydroxy-2-oxo-1,2-dihydroquinolin-5-yl)ethyl)amino)methyl)benzamido)cyclobutyl)amino)-2-oxoethoxy)phenyl)-2-hydroxy-2-phenylacetate]	< 0.3 nM	0.3 to 3 nM
O=C(COc1cccc([C@](O)(C(=O)OCC2CCN(Cc3ccccc3)CC2)c2ccccc2)c1)N[C@H]1C[C@H](NC(=O)c2ccc(CNC[C@H](O)c3ccc(O)c4[nH]c(=O)ccc34)cc2Br)C1 [Compound 136, (1-benzylpiperidin-4-yl)methyl (S)-2-(3-(2-(((1R,3S)-3-(2-bromo-4-((((R)-2-hydroxy-2-(8-hydroxy-2-oxo-1,2-dihydroquinolin-5-yl)ethyl)amino)methyl)benzamido)cyclobutyl)amino)-2-oxoethoxy)phenyl)-2-hydroxy-2-phenylacetate]	< 0.3 nM	0.3 to 3 nM
COc1cc(C(=O)N[C@H]2C[C@H](NC(=O)COc3cccc([C@](O)(C(=O)OCC4CCN(Cc5ccccc5)CC4)c4ccccc4)c3)C2)c(Cl)cc1CNC[C@H](O)c1ccc(O)c2[nH]c(=O)ccc12 [Compound 137, (1-benzylpiperidin-4-yl)methyl (S)-2-(3-(2-(((1R,3S)-3-(2-chloro-4-((((R)-2-hydroxy-2-(8-hydroxy-2-oxo-1,2-dihydroquinolin-5-yl)ethyl)amino)methyl)-5-methoxybenzamido)cyclobutyl)amino)-2-oxoethoxy)phenyl)-2-hydroxy-2-phenylacetate]	< 0.3 nM	0.3 to 3 nM
O=C(COc1cccc([C@](O)(C(=O)OCC2CCN(Cc3ccccc3)CC2)c2ccccc2)c1)N[C@H]1C[C@H](NC(=O)c2ccc(CNC[C@H](O)c3ccc(O)c4[nH]c(=O)ccc34)c(C(F)(F)F)c2)C1 [Compound 138, (1-benzylpiperidin-4-yl)methyl (S)-2-hydroxy-2-(3-(2-(((1R,3S)-3-(4-((((R)-2-hydroxy-2-(8-hydroxy-2-oxo-1,2-dihydroquinolin-5-yl)ethyl)amino)methyl)-3-(trifluoromethyl)benzamido)cyclobutyl)amino)-2-oxoethoxy)phenyl)-2-phenylacetate]	0.3 to 3 nM	0.3 to 3 nM
COc1c(CNC[C@H](O)c2ccc(O)c3[nH]c(=O)ccc23)ccc(C(=O)N[C@H]2C[C@H](NC(=O)COc3cccc([C@](O)(C(=O)OCC4CCN(Cc5ccccc5)CC4)c4ccccc4)c3)C2)c1F [Compound 139, (1-benzylpiperidin-4-yl)methyl (S)-2-(3-(2-(((1R,3S)-3-(2-fluoro-4-((((R)-2-hydroxy-2-(8-hydroxy-2-oxo-1,2-dihydroquinolin-5-yl)ethyl)amino)methyl)-3-methoxybenzamido)cyclobutyl)amino)-2-oxoethoxy)phenyl)-2-hydroxy-2-phenylacetate]	< 0.3 nM	0.3 to 3 nM
CCOc1cc(C(=O)N[C@H]2C[C@H](NC(=O)COc3cccc([C@](O)(C(=O)OCC4CCN(Cc5ccccc5)CC4)c4ccccc4)c3)C2)ccc1CNC[C@H](O)c1ccc(O)c2[nH]c(=O)ccc12 [Compound 140, (1-benzylpiperidin-4-yl)methyl (S)-2-(3-(2-(((1R,3S)-3-(3-ethoxy-4-((((R)-2-hydroxy-2-(8-hydroxy-2-oxo-1,2-dihydroquinolin-5-yl)ethyl)amino)methyl)benzamido)cyclobutyl)amino)-2-oxoethoxy)phenyl)-2-hydroxy-2-phenylacetate]	0.3 to 3 nM	0.3 to 3 nM
O=C(COc1cccc([C@](O)(C(=O)OCC2CCN(Cc3ccccc3)CC2)c2ccccc2)c1)N[C@H]1C[C@H](NC(=O)c2ccc(CNC[C@H](O)c3ccc(O)c4[nH]c(=O)ccc34)c(OC(F)(F)F)c2)C1 [Compound 141, (1-benzylpiperidin-4-yl)methyl (S)-2-hydroxy-2-(3-(2-(((1R,3S)-3-(4-((((R)-2-hydroxy-2-(8-hydroxy-2-oxo-1,2-dihydroquinolin-5-yl)ethyl)amino)methyl)-3-(trifluoromethoxy)benzamido)cyclobutyl)amino)-2-oxoethoxy)phenyl)-2-phenylacetate]	0.3 to 3 nM	0.3 to 3 nM
